Values of other authors as cited in patent US8901111B2, “Aryl-substituted heterocyclic urea modulators of fatty acid amide hydrolase” (Janssen Pharmaceutica NV, priority 2009, dated 2014).

Columns and labels:
FAAH = biological target: T1, FAAH (Homo sapiens, UniProt O00519); conditions: reported; cited from earlier work
T1 sequence (O00519 1-579): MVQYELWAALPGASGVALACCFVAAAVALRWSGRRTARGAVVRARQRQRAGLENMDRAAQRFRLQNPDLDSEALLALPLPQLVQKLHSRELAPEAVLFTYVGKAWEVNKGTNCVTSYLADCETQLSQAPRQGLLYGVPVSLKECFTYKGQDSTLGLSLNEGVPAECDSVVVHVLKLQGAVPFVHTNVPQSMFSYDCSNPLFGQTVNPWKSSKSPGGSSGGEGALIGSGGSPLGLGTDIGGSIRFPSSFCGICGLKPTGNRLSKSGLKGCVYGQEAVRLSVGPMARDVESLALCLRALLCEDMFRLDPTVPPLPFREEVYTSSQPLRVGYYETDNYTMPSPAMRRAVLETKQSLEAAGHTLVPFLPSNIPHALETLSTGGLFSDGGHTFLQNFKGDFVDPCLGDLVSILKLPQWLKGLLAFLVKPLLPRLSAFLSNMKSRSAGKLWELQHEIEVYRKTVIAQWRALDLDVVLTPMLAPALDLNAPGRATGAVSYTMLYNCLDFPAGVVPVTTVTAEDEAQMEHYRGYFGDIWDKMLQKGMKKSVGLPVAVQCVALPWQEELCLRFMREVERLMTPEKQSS

thermal nociception [1] = conditions: rats; WO 04/033652; cited from earlier work
thermal nociception [2] = conditions: cited from earlier work
spasticity = conditions: Baker 2001; cited from earlier work
anxiety = conditions: rats; Kathuria 2003; cited from earlier work
[3] = Kathuria 2003; cited from earlier work
neuropathic pain = conditions: rats; WO 02/087569; cited from earlier work
[4] = system: acute thermal nociception; conditions: rats; WO 02/087569; cited from earlier work

Which “inhibition of FAAH” value (FAAH) does the source give for O=C(CCCCCCc1ccccc1)c1ncc(-c2ccccn2)o1 [OL-135] here?
Its value is “potent inhibitor”.

What about the “analgesic activity in tail emersion test” value (thermal nociception [1]) of the same compound?
Its value is “analgesic activity”.

What about the “analgesic activity in hot plate test” value (thermal nociception [2]; rats, WO 04/033652) of the same compound?
Its value is “analgesic activity”.

With CCCCCCCCCCCCCCCCS(=O)(=O)F [AM374] as the compound, how does the “spasticity in CREAE mice” value (spasticity) read?
The value was “significantly reduce spasticity”.

With NC(=O)c1cccc(-c2cccc(OC(=O)NC3CCCCC3)c2)c1 [URB-597] as the compound, how does the “efficacy in zero plus maze model of anxiety” value (anxiety) read?
The value was “efficacy”.

What about the “analgesic efficacy in rat hot plate test” value (thermal nociception [2]; rat, Kathuria 2003) of the same compound?
The value was “analgesic efficacy”.

And the “analgesic efficacy in rat formalin test” value [3]?
Its value is “analgesic efficacy”.

What does the source list for Cc1nc(-c2ccccc2)c(-c2ccccc2)n1CCCCCCNC(=O)Oc1ccccc1F [BMS-1]?
analgesic effect in Chung spinal nerve ligation model (neuropathic pain): analgesic effect; analgesic effect in Hargraves test [4]: analgesic effect
